The test system of one series is rat footpad. Briefly: Rat footpad (paw-lick) pain test. It counts as in vivo, Male Sprague Dawley rats. Particulars: for Mean time pain response, 0-10 min. / Mean time pain response, 10-20 min.: 8 rats per group; for Pain response in the rat footpad model (result in words): Examples 1-7 and 10, footpad injection 0.1 or 0.2 ml; for Pain in rat footpad model, survey of detergents (result in words): Example 9, injected at concentrations above the CMC for the detergent. From the text:
An animal model, the rat paw-lick (footpad) model, which has previously been employed for detection of pain associated with the injection of antibiotics, was utilized (Celozzi et al. J. Pharmacol. Methods, 1980, 4:[…]; Comerski et al., Fundamental and Appl. Toxicology, 1986, 6:335-338). This model monitors the amount of time the rats spend lifting, licking, and biting the injected paw.
The “rat footpad pain” or “rat paw-lick” test or model as used herein refers to a test or model used to determine the pain induced by a specific formulation upon injection. The test consists of uniformly injecting into the footpad of rats of the same species and approximately the same weights compositions to be assessed as pain causing agents along with compositions known to cause pain at the injection site, as well as compositions known not to cause pain at the injection site. A statistically significant number of animals are to be used for each test and control formulation. After the injection, the animal is placed in a cage with mirrors and then observed by a technician (preferably blinded as to the identity of the immunogenic composition) for 20 to 30 minutes for flinching, lifting, licking, or biting of the injected paw. The amount of time spent on these pain response behaviors are recorded using a stopwatch and summed for 10 minute periods.
The phrase “less painful” as used herein refers to an alteration in the composition that leads to a reduction in the length of time or intensity, or both, of a pain response compared to that of the non-altered composition as measured by the rat footpad pain test. The phrase “50% reduction in pain” as used herein refers to a 50% reduction in the amount of time spent on pain responses as measured by the rat footpad pain test when comparing altered and unaltered immunogenic compositions administered in equal injection volumes by the same means and observed for the same length of time. The number of animals in each group is a statistically significant number. Observation of the different injection groups is preferably done by the same technician and who is blinded as to the identification of the compositions.
Rat footpad pain testing. The immunogenic composition samples were brought to room temperature prior to being administered to the animals. The animals were injected by a technician who was not involved in the monitoring of pain responses. Male Sprague Dawley rats (Crl:CD®(SD)IGS BR, 50-100 g at arrival) from Charles River Laboratories Inc. (Kingston, N.Y.) were used for all studies. The rats were acclimated at the research facility for approximately one week prior to initiation of a study, at which point they weighed 100-150 g. The paw to be injected was examined prior to injection to verify absence of any injury. The animal was then restrained in the technician's arm such that the hind legs extended forward. The right rear leg was grasped just above the hock joint and pressure was exerted to hold the paw straight out, with plantar (sole) facing upwards. Using a new 23 gauge needle for each animal, the operator inserted the bevel side up in the center of paw, parallel to the surface of the paw, until the needle was in the center of the pad. The material was then injected and the needle left in place for 3-5 seconds prior to withdrawal, to minimize leakage from the injection site. […]
The animal was then placed in a cage with 3 mirrors (adjoining sides and floor) and observed by a different technician (blinded as to the identity of the immunogenic composition) for 30 minutes for flinching, lifting, licking, or biting of the injected paw. The length of time spent on these pain response behaviors was recorded using a stopwatch and summed for 10 minute periods. […]
Statistical Analysis. Results were analyzed using an ANOVA method adjusting for multiple comparisons that compared each treatment group with control group who received buffer alone (either PBS or TBS). […]

The conditions of series [1]: known critical micelle concentrations; cited from earlier work.
Setting [2] is: Example 1 (Table 1), 0.1 ml footpad injection, 6 rats per group.
Setting [3] is: Example 4 (Table 7), 0.2 ml injection (formalin 0.1 ml), 10 rats per group.
Setting [4] is: Example 6 (Table 11), 0.2 ml injection (formalin 0.1 ml), 10 rats per group.
The mark [5] stands for this setting: Example 7 (Table 13), 0.2 ml injection (formalin 0.1 ml), 10 rats per group.
Where [6] appears, read: Example 9 (Table 15), concentration 5%, 100 μl.
Where [7] appears, read: Example 9 (Table 16), concentration 5%, 100 μl.
The mark [8] stands for this setting: Example 9 (Table 17), concentration 5%, 100 μl.
Setting [9] is: Example 9 (Table 16), concentration 0.9%, 200 μl.
Setting [10] is: Example 9 (Table 17), concentration 0.8%, 200 μl.
The mark [11] stands for this setting: Example 9 (Table 17), concentration 7 mM, 200 μl.
The mark [12] stands for this setting: Example 9 (Table 16), concentration 1%, 200 μl.
[13] abbreviates: Example 9 (Table 17), concentration 0.5%, 200 μl.

On to `C=O` [5% Formalin], for which, in the series on rat footpad (setting [2]), the “Time pain response, Mean, 0-10 min.” value was determined as 274 s; the “Time pain response, Mean, 10-20 min.” value is recorded as 312 sec; the “Time pain response, Mean, 20-30 min.” value was 450 s; the “Time pain response, Median, 10-20 min.” value was 292 sec. Also, the “Time pain response, Median, 20-30 min.” value with rat footpad (setting [2]) was 448 s. In the series on rat footpad (Example 1 (Table 1), 0.1 ml footpad injection, 6 rats per group, PBS not pyrogen-free), the “Time pain response, Median, 0-10 min.” value came to 311 s. Besides, in the series with rat footpad (setting [3]), the “0-10 min. time pain response, Mean” value was 178 s; the “0-10 min. time pain response, Median” value is 162 s; the “10-20 min. time pain response, Mean” value is recorded as 174 sec; the “10-20 min. time pain response, Median” value is listed as 173 sec. Also, in the series on rat footpad (setting [4]), the “0-10 min. time pain response, Mean” value came to 225 s; the “0-10 min. time pain response, Median” value amounted to 219 s; the “10-20 min. time pain response, Mean” value is given as 167 sec; the “10-20 min. time pain response, Median” value was 181 sec. Moreover, in the series on rat footpad (setting [5]), the “0-10 min time pain response, Mean” value stood at 252 s; the “0-10 min time pain response, Median” value was 233 s; the “10-20 min. time pain response, Mean” value was 435 sec; the “10-20 min. time pain response, Median” value was 448 sec. In the series on rat footpad (setting [6]), the “Mean time pain response, 0-10 min.” value was determined as 161.3 s and the “Mean time pain response, 10-20 min.” value is recorded as 313.5 sec. In the series on rat footpad (setting [7]), the “Mean time pain response, 0-10 min.” value came out at 114 s and the “Mean time pain response, 10-20 min.” value amounted to 218 sec. Moreover, in the series on rat footpad (setting [8]), the “Mean time pain response, 0-10 min.” value came to 272.5 s and the “Mean time pain response, 10-20 min.” value is on record as 280.4 sec. Moreover, the “Pain response in the rat footpad model (result in words)” value (“Pain response in the rat footpad model” below) in the series with rat footpad was “induced the highest pain response among the compositions tested”.

For `C[C@H](CCC(=O)N(CCCNC(=O)[C@H](O)[C@@H](O)[C@H](O)[C@H](O)CO)CCCNC(=O)[C@H](O)[C@@H](O)[C@H](O)[C@H](O)CO)[C@H]1CC[C@H]2[C@@H]3[C@H](O)C[C@@H]4C[C@H](O)CC[C@]4(C)[C@H]3C[C@H](O)[C@]12C` [BigCHAP ®, N,N-bis(3-D-glucon-amidopropyl)cholamide], in series [1], the “CMC” value was 3 to 4 mM and the “CMC (%)” value was 0.3%.

Consider `C[C@H](CCC(=O)NCCC[N+](C)(C)CCCS(=O)(=O)[O-])[C@H]1CC[C@H]2[C@@H]3[C@H](O)C[C@@H]4C[C@H](O)CC[C@]4(C)[C@H]3C[C@H](O)[C@]12C` [CHAPS ®, 3-[(3-Cholamidopropyl)dimethylammonio]-1-propanesulfonate], for which, in the series on rat footpad (setting [9]), the “Mean time pain response, 0-10 min.” value was found to be 351 s and the “Mean time pain response, 10-20 min.” value was 114 sec. Moreover, in the series on rat footpad, the “Pain in rat footpad model, survey of detergents (result in words)” value (from here on “Pain in rat footpad model, survey”) is reported as “caused significant pain” and the “Pain response in the rat footpad model” value was “cause considerable pain”. Moreover, in series [1], the “CMC” value is 6 to 10 mM and the “CMC (%)” value was 0.18-0.62%.

On to `CCCCCCCCCCCCO[C@@H]1O[C@H](CO)[C@@H](O[C@H]2O[C@H](CO)[C@@H](O)[C@H](O)[C@H]2O)[C@H](O)[C@H]1O` [Dodecyl maltoside, n-Dodecyl-beta-D-maltoside], for which, in the series with rat footpad (setting [10]), the “Mean time pain response, 0-10 min.” value is 298.0 s and the “Mean time pain response, 10-20 min.” value was 141.0 sec. For the same compound, in the series on rat footpad, the “Pain in rat footpad model, survey” value was “induced pain”.

Turning to `CCCCCCCCCC(=O)N(C)C[C@H](O)[C@@H](O)[C@H](O)[C@H](O)CO` [Mega10, Decanoyl-N-methylglucamide], in the series on rat footpad (setting [11]), the “Mean time pain response, 0-10 min.” value is 28.8 s and the “Mean time pain response, 10-20 min.” value was 31.0 sec.

As to `CCCCCCCCO[C@@H]1O[C@H](CO)[C@@H](O)[C@H](O)[C@H]1O` [Octyl glucoside, n-Octyl-b-D-glucopyranoside], in the series on rat footpad (setting [12]), the “Mean time pain response, 0-10 min.” value amounted to 48 s and the “Mean time pain response, 10-20 min.” value is reported as 108 sec. Also, in the series on rat footpad, the “Pain in rat footpad model, survey” value was “induced pain” and the “Pain response in the rat footpad model” value was “cause considerable pain”.

In the case of `CCCCCCCC[N+](C)(C)CCCS(=O)(=O)[O-]` [Zwittergent ® 3-8, n-Octyl-N,N-dimethyl-3-ammonio-1-propanesulfonate], in series [1], the “CMC” value is 330 mM and the “CMC (%)” value was 4.6-10.9%.

As to Sodium deoxycholate, in the series on rat footpad (setting [13]), the “Mean time pain response, 0-10 min.” value worked out at 307.0 s and the “Mean time pain response, 10-20 min.” value is on record as 121.9 sec.

Source of the values: patent publication US7608278B2, “Formulations of hydrophobic proteins in an immunogenic composition having improved tolerability” (priority 2003, dated 2009).
